Measured values: US20150217046A1, “DOSING REGIMENS FOR SUBCUTANEOUSLY INFUSIBLE ACIDIC COMPOSITIONS” (SynAgile Corporation, priority 2012, published 2015)
Like-named read-outs stand apart in the source and are kept apart here.

[1] = minipig A day 8: 90 mg LDEE (100 mg/mL, pH 3.7) re-infused at contralateral site over 8 h, pre-infused with 15 units human hyaluronidase
[2] = minipig B day 1: 90 mg LDEE (100 mg/mL, pH 3.7) s.c. continuous over 8 h, oral Lodosyn
[3] = minipig C day 1: 560 mg LDEE (100 mg/mL, pH 3.7) split between 2 sites, s.c. continuous over 8 h, oral Lodosyn
[4] = minipig C day 8: 280 mg LDEE (100 mg/mL, pH 3.7) re-infused at one site, s.c. continuous over 8 h
[5] = minipig D day 1: 560 mg LDEE (100 mg/mL, pH 3.7) split between 2 sites, s.c. continuous over 8 h, oral Lodosyn
[6] = minipig D day 8: 560 mg LDEE (100 mg/mL, pH 3.7) re-infused at the 2 day 1 sites, s.c. continuous over 8 h
[7] = minipig E day 1: 560 mg LDEE (100 mg/mL, pH 3.7) split between 2 sites, s.c. continuous over 8 h, pre-infused with 15 units human hyaluronidase
[8] = minipig F day 1: 560 mg LDEE (100 mg/mL, pH 3.7) split between 2 sites, s.c. continuous over 8 h, pre-infused with 15 units human hyaluronidase
[9] = minipig F day 8: 560 mg LDEE (100 mg/mL, pH 3.7) re-infused at 2 sites over 8 h, pre-infused with 15 units human hyaluronidase

Description: Six minipigs, labeled A, B, C, D, E and F, weighing between 5 and 8 kg, were ported for venous access two weeks prior to infusion.
On Day 8 minipig A was similarly re-infused at the contralateral body site after it was pre-infused over about 10 minutes with 15 units of human hyaluronidase.
Minipigs C and D were infused on the first day over 8 hours continuously with 560 mg (2.5 millimoles) of the 100 mg/mL, i.e., with 5.6 mL of the pH 3.7 (16 mM citrate buffered) LDEE pharmaceutical composition. The 560 mg dose was split between 2 sites separated by 3 inches, each site receiving 280 mg.
Minipigs E and F were infused on Day 1 similarly to minipigs C and D, but were pre-infused over about 10 minutes with 15 units of human hyaluronidase.
On the 8th day minipig D was re-infused at the Day 1 infusion sites over 8 hours continuously with 560 mg (2.5 millimoles) of 100 mg/mL, i.e., with 5.6 mL of the pH 3.7 (16 mM citrate buffered) LDEE pharmaceutical composition. […] Minipig F was also re-infused on Day 8 similarly to minipig D but was pre-infused with 15 units of human hyaluronidase over about 10 min.
On Day 8, minipig C was also re-infused, but received only half the dose.
The samples were rapidly cooled and spun down to plasma; because hemoglobin reacts with LD in a reaction where LD is decarboxylated, red-colored plasma samples were excluded.

**Q.** For `CCOC(=O)[C@@H](N)Cc1ccc(O)c(O)c1` [LDEE, levodopa ethyl ester], which “100 minutes Post-Infusion plasma LD” value [1] is on record?
**A.** 342 ng/mL

**Q.** And the “170 minutes Post-Infusion plasma LD” value [1]?
**A.** 185 ng/mL

**Q.** What about the “End of Infusion Plasma LD” value [1] of the same molecule?
**A.** 679 ng/mL

**Q.** What about the “Plasma LD, 480 minutes after start of infusion” value (“Plasma LD, 480 minutes” below) (minipig A day 8: 90 mg LDEE (100 mg/mL, pH 3.7), contralateral site, 8 h, hyaluronidase pre-infusion) of the same molecule?
**A.** 679 ng/mL

**Q.** What about the “Plasma LD, 480 minutes” value (minipig B day 1: 90 mg LDEE (100 mg/mL, pH 3.7) s.c. continuous over 8 h) of the same molecule?
**A.** 1,351 ng/mL

**Q.** And the “40 minutes Post-Infusion plasma LD” value [2]?
**A.** 1,010 ng/mL

**Q.** And the “100 minutes Post-Infusion plasma LD” value [2]?
**A.** 686 ng/mL

**Q.** And the “170 minutes Post-Infusion plasma LD” value [2]?
**A.** 376 ng/mL

**Q.** And the “End of Infusion Plasma LD” value [2]?
**A.** 1,351 ng/mL

**Q.** What about the “Plasma LD, 480 minutes” value (minipig C day 1: 560 mg LDEE (100 mg/mL, pH 3.7) split between 2 sites, s.c. continuous over 8 h) of the same molecule?
**A.** 11,377 ng/mL

**Q.** And the “40 minutes Post-Infusion plasma LD” value [3]?
**A.** 11,006 ng/mL

**Q.** And the “100 minutes Post-Infusion plasma LD” value [3]?
**A.** 6,010 ng/mL

**Q.** What about the “170 minutes Post-Infusion plasma LD” value [3] of the same molecule?
**A.** 5,754 ng/mL

**Q.** And the “End of Infusion Plasma LD” value [3]?
**A.** 11,377 ng/mL

**Q.** And the “Plasma LD, 480 minutes” value (minipig C day 8: 280 mg LDEE (100 mg/mL, pH 3.7) at one site, 8 h)?
**A.** 4739 ng/mL

**Q.** And the “40 minutes Post-Infusion plasma LD” value [4]?
**A.** 4551 ng/mL

**Q.** And the “100 minutes Post-Infusion plasma LD” value [4]?
**A.** 3357 ng/mL

**Q.** And the “170 minutes Post-Infusion plasma LD” value [4]?
**A.** 2306 ng/mL

**Q.** And the “End of Infusion Plasma LD” value [4]?
**A.** 4739 ng/mL

**Q.** What about the “Plasma LD, 480 minutes” value (minipig D day 1: 560 mg LDEE (100 mg/mL, pH 3.7) split between 2 sites, s.c. continuous over 8 h) of the same molecule?
**A.** 15,356 ng/mL

**Q.** And the “40 minutes Post-Infusion plasma LD” value [5]?
**A.** 17,055 ng/mL

**Q.** And the “100 minutes Post-Infusion plasma LD” value [5]?
**A.** 9,790 ng/mL

**Q.** And the “170 minutes Post-Infusion plasma LD” value [5]?
**A.** 6,942 ng/mL

**Q.** What about the “End of Infusion Plasma LD” value [5] of the same molecule?
**A.** 15,356 ng/mL

**Q.** And the “Plasma LD, 480 minutes” value (minipig D day 8: 560 mg LDEE (100 mg/mL, pH 3.7) re-infused at the 2 day 1 sites, 8 h)?
**A.** 8075 ng/mL

**Q.** And the “40 minutes Post-Infusion plasma LD” value [6]?
**A.** 8350 ng/mL

**Q.** What about the “100 minutes Post-Infusion plasma LD” value [6] of the same molecule?
**A.** 5928 ng/mL

**Q.** And the “170 minutes Post-Infusion plasma LD” value [6]?
**A.** 4219 ng/mL

**Q.** What about the “End of Infusion Plasma LD” value [6] of the same molecule?
**A.** 8075 ng/mL

**Q.** What about the “increase in plasma LD concentration 40 minutes after cessation of infusion” value (minipig D, Day 1 infusion) of the same molecule?
**A.** 1,699 ng/mL

**Q.** What about the “40 minutes Post-Infusion plasma LD” value [7] of the same molecule?
**A.** 11,918 ng/mL

**Q.** And the “100 minutes Post-Infusion plasma LD” value [7]?
**A.** 5,464 ng/mL

**Q.** What about the “170 minutes Post-Infusion plasma LD” value [7] of the same molecule?
**A.** 7,329 ng/mL

**Q.** And the “End of Infusion Plasma LD” value [7]?
**A.** 14,212 ng/mL

**Q.** And the “Plasma LD, 480 minutes” value (minipig E day 1: 560 mg LDEE (100 mg/mL, pH 3.7), 2 sites, 8 h, hyaluronidase pre-infusion)?
**A.** 14,212 ng/mL

**Q.** And the “40 minutes Post-Infusion plasma LD” value [8]?
**A.** 12,310 ng/mL

**Q.** What about the “100 minutes Post-Infusion plasma LD” value [8] of the same molecule?
**A.** 3,046 ng/mL

**Q.** What about the “170 minutes Post-Infusion plasma LD” value [8] of the same molecule?
**A.** 5,903 ng/mL

**Q.** And the “End of Infusion Plasma LD” value [8]?
**A.** 12,982 ng/mL

**Q.** What about the “Plasma LD, 480 minutes” value (minipig F day 1: 560 mg LDEE (100 mg/mL, pH 3.7), 2 sites, 8 h, hyaluronidase pre-infusion) of the same molecule?
**A.** 12,982 ng/mL

**Q.** And the “40 minutes Post-Infusion plasma LD” value [9]?
**A.** 8223 ng/mL

**Q.** And the “100 minutes Post-Infusion plasma LD” value [9]?
**A.** 6231 ng/mL

**Q.** What about the “170 minutes Post-Infusion plasma LD” value [9] of the same molecule?
**A.** 3650 ng/mL

**Q.** And the “End of Infusion Plasma LD” value [9]?
**A.** 8880 ng/mL

**Q.** And the “Plasma LD, 480 minutes” value (minipig F day 8: 560 mg LDEE (100 mg/mL, pH 3.7), 2 sites, 8 h, hyaluronidase pre-infusion)?
**A.** 8880 ng/mL
